What was measured:
pERK in MKN1 cells = test: Inhibition of KRas phosphorylation of ERK (Cisbio HTRF pERK assay); settings: Homo sapiens, MKN-1, 3 h, read-out: Inhibition (HTRF IC50) of KRas-mediated Phosphorylation of ERK, MKN1
pERK in PSN1 cells = test: as above; settings: Homo sapiens, PSN1, 3 h, read-out: Inhibition (HTRF IC50) of KRas-mediated Phosphorylation of ERK, PSN1
[1] = test system: phospho-ERK in PSN-1 (G12R) cells; test: Inhibition of KRas-mediated phosphorylation of ERK (in-cell western); assay type: cell-based; settings: Homo sapiens, PSN1, 3 hours compound, phospho-ERK normalized to GAPDH
Summary of the method: (§1)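 Following fixation in formaldehyde and permeabilization in cold methanol, ERK phosphorylated at Thr202/Tyr204 was quantified against GAPDH.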

[2] = test system: phospho-ERK in NCI-H460 (Q61H) cells; test: as above; assay type: cell-based; settings: Homo sapiens, NCI-H460, 3 h, 3 hours compound, phospho-ERK normalized to GAPDH
Summary of the method: as §1

[3] = test system: phospho-ERK in AsPC-1 (G12D) cells; test: as above; assay type: cell-based; settings: Homo sapiens, ASPC1, 3 h, 3 hours compound, phospho-ERK normalized to GAPDH
Summary of the method: as §1

[4] = test system: phospho-ERK in NCI-H727 (G12V) cells; test: as above; assay type: cell-based; settings: Homo sapiens, NCI-H727, 3 h, 3 hours compound, phospho-ERK normalized to GAPDH
Summary of the method: as §1

[5] = test system: phospho-ERK in NCI-H358 (G12C) cells; test: as above; assay type: cell-based; settings: Homo sapiens, 3 hours compound, phospho-ERK normalized to GAPDH
Summary of the method: as §1

[6] = test system: phospho-ERK in A549 (G12S) cells; test: as above; assay type: cell-based; settings: Homo sapiens, 3 hours compound, phospho-ERK normalized to GAPDH
Summary of the method: as §1

[7] = test system: phospho-ERK in MKN1 (WTdep) cells; test: as above; assay type: cell-based; settings: Homo sapiens, MKN-1, 3 hours compound, phospho-ERK normalized to GAPDH
Summary of the method: as §1

[8] = test system: phospho-ERK in HCT116 (G13D) cells; test: as above; assay type: cell-based; settings: Homo sapiens, HCT-116, 3 hours compound, phospho-ERK normalized to GAPDH
Summary of the method: as §1

KRas G12C = KRas G12C (Homo sapiens, UniProt P01116, G12C); test: biochemical;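 note: binding to KRas assessed by TR-FRET displacement after one hour incubation at room temperature, potency fitted from percent-of-control values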
KRas G12C, sequence (P01116 1-169 isoform P01116-2 G12C): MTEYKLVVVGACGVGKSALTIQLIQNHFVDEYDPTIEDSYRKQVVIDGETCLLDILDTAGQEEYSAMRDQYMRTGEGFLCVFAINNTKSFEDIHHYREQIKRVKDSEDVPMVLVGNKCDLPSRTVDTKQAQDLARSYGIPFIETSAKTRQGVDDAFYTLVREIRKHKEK
Procedure: (§2) The ability of a compound to bind to KRas was measured using a TR-FRET displacement assay. […] After a 60-minute incubation at room temperature, the reaction was measured using a BMG LABTECH CLARIO star Plus via TR-FRET. […] The POC values were fit to a 4-parameter IC50 equation and the IC50 value reported.

KRas G12S = KRas G12S (Homo sapiens, UniProt P01116, G12S); test: biochemical;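 note: TR-FRET displacement binding to KRas, read after one hour incubation at room temperature, IC50 from four-parameter fit of percent of control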
KRas G12S, sequence (P01116 1-169 isoform P01116-2 G12S): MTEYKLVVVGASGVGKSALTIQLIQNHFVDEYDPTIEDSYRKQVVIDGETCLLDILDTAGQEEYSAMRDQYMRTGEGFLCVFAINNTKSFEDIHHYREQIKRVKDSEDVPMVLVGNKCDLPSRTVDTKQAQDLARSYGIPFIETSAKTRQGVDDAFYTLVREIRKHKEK
Procedure: as §2

KRas G12V = KRas G12V (Homo sapiens, UniProt P01116, G12V); test: biochemical;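 note: KRas binding measured by TR-FRET displacement at room temperature, IC50 fitted from percent of control values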
KRas G12V, sequence (P01116 1-169 isoform P01116-2 G12V): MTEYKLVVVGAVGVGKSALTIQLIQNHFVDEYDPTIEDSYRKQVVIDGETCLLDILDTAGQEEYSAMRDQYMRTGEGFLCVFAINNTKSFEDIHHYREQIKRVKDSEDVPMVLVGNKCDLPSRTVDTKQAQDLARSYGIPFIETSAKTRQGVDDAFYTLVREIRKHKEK
Procedure: as §2

KRas WT = KRas WT (Homo sapiens, UniProt P01116); test: biochemical;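 note: binding to KRas read as TR-FRET displacement after a one-hour room-temperature incubation, IC50 derived from percent-of-control values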
KRas WT, sequence (P01116 1-169 isoform P01116-2): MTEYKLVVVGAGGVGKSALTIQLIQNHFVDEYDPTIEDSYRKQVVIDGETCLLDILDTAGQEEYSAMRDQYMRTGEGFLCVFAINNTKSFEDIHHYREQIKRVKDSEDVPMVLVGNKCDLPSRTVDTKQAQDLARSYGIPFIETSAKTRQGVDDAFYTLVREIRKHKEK
Procedure: as §2

KRas G12A = KRas G12A (Homo sapiens, UniProt P01116, G12A); test: biochemical;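 note: binding to KRas measured by TR-FRET displacement after one hour at room temperature, IC50 from a four-parameter fit of percent-of-control values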
KRas G12A, sequence (P01116 1-169 isoform P01116-2 G12A): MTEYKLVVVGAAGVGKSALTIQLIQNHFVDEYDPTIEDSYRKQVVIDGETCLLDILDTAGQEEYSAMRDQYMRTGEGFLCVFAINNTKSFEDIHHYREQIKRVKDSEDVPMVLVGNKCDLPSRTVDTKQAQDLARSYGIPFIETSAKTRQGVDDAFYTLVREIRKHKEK
Procedure: as §2

KRas G12R = KRas G12R (Homo sapiens, UniProt P01116, G12R); test: biochemical;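 note: TR-FRET displacement assay of compound binding to KRas, read after one hour at room temperature, potency from a four-parameter fit of percent-of-control values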
KRas G12R, sequence (P01116 1-169 isoform P01116-2 G12R): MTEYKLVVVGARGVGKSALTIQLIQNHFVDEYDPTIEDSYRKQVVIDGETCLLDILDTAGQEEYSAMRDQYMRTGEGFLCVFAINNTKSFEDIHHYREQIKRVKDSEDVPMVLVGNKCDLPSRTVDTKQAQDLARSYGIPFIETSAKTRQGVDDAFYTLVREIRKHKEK
Procedure: as §2

KRas G12D = KRas G12D (Homo sapiens, UniProt P01116, G12D); test: biochemical;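 note: TR-FRET displacement binding assay on KRas, read after a one-hour incubation at room temperature, IC50 fitted from percent-of-control values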
KRas G12D, sequence (P01116 1-169 isoform P01116-2 G12D): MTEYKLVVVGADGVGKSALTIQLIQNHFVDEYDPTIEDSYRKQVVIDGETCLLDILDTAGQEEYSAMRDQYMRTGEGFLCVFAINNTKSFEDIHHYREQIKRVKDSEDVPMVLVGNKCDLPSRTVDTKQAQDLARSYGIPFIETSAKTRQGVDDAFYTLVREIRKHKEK
Procedure: as §2

pERK in H727 cells = test: Inhibition of KRas phosphorylation of ERK (Cisbio HTRF pERK assay); settings: Homo sapiens, NCI-H727, read-out: Inhibition (HTRF IC50) of KRas-mediated Phosphorylation of ERK, H727
pERK in ASPC1 cells = test: as above; settings: Homo sapiens, ASPC1, read-out: Inhibition (HTRF IC50) of KRas-mediated Phosphorylation of ERK, AsPC-1
pERK in HCT116 cells = test: as above; settings: Homo sapiens, HCT-116, read-out: Inhibition (HTRF IC50) of KRas-mediated Phosphorylation of ERK, HCT116

| Structure (SMILES) | IC50 (pERK in MKN1 cells) [nM] | IC50 (pERK in PSN1 cells) [nM] | IC50 [1] [nM] | IC50 [2] [nM] | IC50 [3] [nM] | IC50 [4] [nM] | IC50 [5] [nM] | IC50 [6] [nM] | IC50 [7] [nM] | IC50 [8] [nM] | IC50 (KRas G12C) [nM] | IC50 (KRas G12S) [nM] | IC50 (KRas G12V) [nM] | IC50 (KRas WT) [nM] | IC50 (KRas G12A) [nM] | IC50 (KRas G12R) [nM] | IC50 (KRas G12D) [nM] | IC50 (pERK in H727 cells) [nM] | IC50 (pERK in ASPC1 cells) [nM] | IC50 (pERK in HCT116 cells) [nM] |
| --- | --- | --- | --- | --- | --- | --- | --- | --- | --- | --- | --- | --- | --- | --- | --- | --- | --- | --- | --- | --- |
| CCc1c(F)ccc2cccc(-c3ncc4c(N5CCC[C@@](C)(O)C5)nc(OC[C@@]56CCCN5C[C@H](F)C6)nc4c3F)c12 [Example 16, (R)-1-(7-(8-ethyl-7-fluoronaphthalen-1-yl)-8-fluoro-2-(((2R,7aS)-2-fluorohexahydro-1H-pyrrolizin-7a-yl)methoxy)pyrido[4,3-d]pyrimidin-4-yl)-3-methylpiperidin-3-ol] | 275 | ≥ 10000 | ≥ 10000 | 113 | 654 | ≥ 10000 | 1180 | 1760 | 802 | 2180 |  |  |  |  |  |  |  |  |  |  |
| C#Cc1c(F)ccc2cc(O)cc(-c3ncc4c(N5CCCC6(CNC(=O)C6)C5)nc(OC[C@@]56CCCN5C[C@H](F)C6)nc4c3F)c12 (stereo partly drawn) [Example 24] |  |  | 3690 | 2820 | 1680 | 4720 | 454 | ≥ 10000 | 406 | 1370 | ≤ 2 | ≤ 2 | ≤ 2 | ≤ 2 | ≤ 2 | ≤ 2 | ≤ 2 |  |  |  |
| CC1(O)CCCN(c2nc(OCC34CCCN3CCC4)nc3c(F)c(-c4cc(O)cc(Cl)c4C4CC4)ncc23)C1 (stereo not drawn) [Example 71, 1-(7-(3-chloro-2-cyclopropyl-5-hydroxyphenyl)-8-fluoro-2-((tetrahydro-1H-pyrrolizin-7a(5H)-yl)methoxy)pyrido[4,3-d]pyrimidin-4-yl)-3-methylpiperidin-3-ol] |  |  | ≥ 10000 | 2170 | 4730 | 2240 | 361 | ≥ 10000 | 140 | 1950 |  |  | ≤ 2 |  |  | 6 | 3 | 1920 | 2100 |  |
| C[C@@H]1C[C@@H]1c1c(Cl)cc(O)cc1-c1ncc2c(N3CCCC(C)(O)C3)nc(OCC34CCCN3CCC4)nc2c1F (stereo partly drawn) [Example 132, 1-(7-(3-chloro-5-hydroxy-2-((1S,2R)-2-methylcyclopropyl)phenyl)-8-fluoro-2-((tetrahydro-1H-pyrrolizin-7a(5H)-yl)methoxy)pyrido[4,3-d]pyrimidin-4-yl)-3-methylpiperidin-3-ol] |  |  | ≥ 10000 | 206 | 104 | ≥ 10000 | 131 | ≥ 10000 | 27 | ≥ 10000 |  |  | 5 |  |  | 6 | 9 | 912 | 623 |  |
| CCc1c(F)ccc2cc(O)cc(-c3ncc4c(N5CCCC6(CNC(=O)N6)C5)nc(OC[C@@]56CCCN5C[C@H](F)C6)nc4c3F)c12 (stereo partly drawn) [Example 133] |  |  | ≥ 10000 | 49 | 156 | 612 | 41 | 55 | 171 | 650 |  |  | ≤ 2 |  |  | ≤ 2 | ≤ 2 | 246 | 144 | 360 |
| CCc1c(F)ccc2cc(O)cc(-c3ncc4c(NCCC(N)=O)nc(OC[C@@]56CCCN5C[C@H](F)C6)nc4c3F)c12 [Example 141] |  |  | ≥ 10000 | 1110 | 210 | ≥ 10000 | 88 | 875 | 282 | ≥ 10000 |  |  | ≤ 2 |  |  | ≤ 2 | ≤ 2 | 2130 | 641 |  |
